In assay [1] the target is T1, Prostaglandin G/H synthase 1 (Ovis aries, UniProt P05979).
T1 sequence (P05979 whole entry): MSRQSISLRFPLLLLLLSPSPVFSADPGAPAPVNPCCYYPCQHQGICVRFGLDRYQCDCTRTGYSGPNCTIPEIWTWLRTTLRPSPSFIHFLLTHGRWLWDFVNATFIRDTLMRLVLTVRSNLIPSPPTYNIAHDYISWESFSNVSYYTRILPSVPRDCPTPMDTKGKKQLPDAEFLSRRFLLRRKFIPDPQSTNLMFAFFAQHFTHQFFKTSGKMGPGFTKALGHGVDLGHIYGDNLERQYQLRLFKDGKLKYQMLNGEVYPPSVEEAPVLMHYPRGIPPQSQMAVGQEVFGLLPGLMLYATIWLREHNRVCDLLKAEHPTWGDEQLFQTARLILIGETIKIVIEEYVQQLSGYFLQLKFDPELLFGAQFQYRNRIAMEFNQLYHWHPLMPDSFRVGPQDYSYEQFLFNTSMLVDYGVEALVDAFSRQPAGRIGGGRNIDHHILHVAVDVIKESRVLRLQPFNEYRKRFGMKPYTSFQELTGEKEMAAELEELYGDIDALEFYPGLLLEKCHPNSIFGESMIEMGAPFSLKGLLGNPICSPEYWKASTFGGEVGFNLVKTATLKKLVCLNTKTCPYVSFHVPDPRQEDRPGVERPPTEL
Description: In vitro inhibition against ovine Prostaglandin G/H synthase 1

Assay [2] concerns the target T2, Prostaglandin G/H synthase 1 (Ovis aries) (UniProt P05979).
T2 sequence (whole entry): T1 sequence (P05979 whole entry)
Briefly: In vitro selectivity ratio of Prostaglandin G/H synthase 1 to Prostaglandin G/H synthase 2.

The text below walks through data of ChEMBL document CHEMBL1136086, “6-Alkyl, alkoxy, or alkylthio-substituted 3-(4-methanesulfonylphenyl)-4-phenylpyran-2-ones: a novel class of diarylheterocyclic selective cyclooxygenase-2 inhibitors” (Bioorg Med Chem Lett, 2003).

Regarding `CCOc1cc(-c2ccccc2)c(-c2ccc(S(C)(=O)=O)cc2)c(=O)o1`, 281 µM corresponded to half-maximal inhibition in assay [1] (IC50). Still for that read-out and setting: with `CCSc1cc(-c2ccccc2)c(-c2ccc(S(C)(=O)=O)cc2)c(=O)o1` the figure was 386 µM; with `CCc1cc(-c2ccccc2)c(-c2ccc(S(C)(=O)=O)cc2)c(=O)o1`, 8 µM; with `CC(C)Sc1cc(-c2ccccc2)c(-c2ccc(S(C)(=O)=O)cc2)c(=O)o1`, greater than 100 µM. On the same count and under the same terms, with `CC(C)c1cc(-c2ccccc2)c(-c2ccc(S(C)(=O)=O)cc2)c(=O)o1` the figure was 341 µM.

`CC(C)Oc1cc(-c2ccccc2)c(-c2ccc(S(C)(=O)=O)cc2)c(=O)o1`: in assay [2], the Ratio came out at 2. Besides, the IC50 (as a rule, the concentration needed to halve the response being measured) in assay [1] stood at 4 µM. Regarding `CSc1cc(-c2ccccc2)c(-c2ccc(S(C)(=O)=O)cc2)c(=O)o1`, the Ratio in assay [2] came to 35.7. Besides, in assay [1], the IC50 was greater than 100 µM. On to `Cc1cc(-c2ccccc2)c(-c2ccc(S(C)(=O)=O)cc2)c(=O)o1`, for which the IC50 in assay [1] came to 615 µM. As to `COc1cc(-c2ccccc2)c(-c2ccc(S(C)(=O)=O)cc2)c(=O)o1`, the Ratio in assay [2] was less than 0.52. For the same compound, 14.7 µM corresponded to half-maximal inhibition in assay [1] (IC50).
